Drawing on patent US12173007B2, “Imidazopyridazine IL-17 inhibitor compounds” (Janssen Pharmaceutica NV, priority 2021, dated 2024), this text covers IC50 for 14 compounds.

SMILES strings stand for the structures.

The target in assay [1] is IL-17A(FLAG-Tagged): IL-17RA(His-Tagged) binding (Homo sapiens, UniProt Q16552, K93Q). As to the kind of experiment: IL-17A(FLAG-tagged):IL-17RA(His-tagged) binding disruption Eu-HTRF assay, Protocol 2. Conditions: FLAG-IL-17A 1 nM; average if tested more than once. An excerpt:
IL-17A(FLAG-Tagged): IL-17RA(His-Tagged) Binding Disruption Eu-HTRF Assay
An antibody directed against the FLAG tag of IL-17A (SEQ ID NO: 1) is labeled with the HTRF donor chromophore (Europium-cryptate). IL-17A is present as a dimer that is “locked into” this quaternary structure due to the formation of loop-spanning […] disulfide bridges. The construct of IL-17RA used in the assay excludes the […] portion of the receptor and is fused to a C-terminal 10×His tag (SEQ ID NO:2). An antibody directed against the His tag of the IL-17RA chimera is labeled with the HTRF acceptor chromophore (“D2”). The fluorescence-resonance energy transfer (FRET) depends on the vicinity of the donor chromophore to the acceptor, and interruption of the binding between the IL-17A and IL-17RA causes the reduction/loss of FRET. Therefore, this assay allows to evaluate the compound effect on the binding IL-17A and IL-17RA by monitoring the fluorescence intensity of donor vs acceptor. The assay was run using either Protocol 1 or Protocol 2 as described below.
Protocol 2. 40 nl of 2-fold serial diluted compound solution for total 22 dilution points is added into each well of a 1536-well, white, low-volume, non-binding plate (Greiner #782904), then 2 μl of FLAG tagged IL-17A at 2×final concentration (1 nM) in solution of PBS+0.01% Triton-X100 is added to each well. The assay plate is briefly centrifuged then incubated for 1 h at rt. A mixed solution is prepared containing 2×5 nM 10HIS×IL-17RA, 2×2.5 nM Eu-anti-FLAG (CISBIO), 2×5 nM D2-anti-HIS (CISBIO) in PBS+0.01% Triton-X100+200 mM Potassium Fluoride (Sigma 60238) and 2 μl of mix is added to each well of the assay plate. The plate is briefly centrifuged then incubated for 2 h at rt. The HTRF intensities at the wavelength of donor (615 nm) and acceptor (665 nm) are measured using BMG Pherastar. The ratio between intensities at two wavelengths is calculated and plotted against the compound concentration and the data is fitted to a one-site competition model to yield IC50 of the compound.

Assay [2] concerns IL-17A-induced G-CSF production in human normal keratinocyte (NHK). Briefly: NHK assay: IL-17A-induced G-CSF production in normal human keratinocytes. The conditions noted are these: 24 h, IL-17A 5 ng/mL, G-CSF by HTRF, average if tested more than once. Format: cell-based. The essentials: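 IC50 derives from G-CSF in supernatants, quantified by HTRF from a standard curve, with CellTiter-Glo viability compared to DMSO control. Before a 24 h, 37°C culture of normal human keratinocytes at 3000–4000 cells/well, compound dilutions were preincubated 1 h at rt with human IL-17A (5 ng/mL final), with 0.2% DMSO and 5% FBS.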

UniProt Q16552, sequence (Q16552 with tags, fused parts or gaps K93Q): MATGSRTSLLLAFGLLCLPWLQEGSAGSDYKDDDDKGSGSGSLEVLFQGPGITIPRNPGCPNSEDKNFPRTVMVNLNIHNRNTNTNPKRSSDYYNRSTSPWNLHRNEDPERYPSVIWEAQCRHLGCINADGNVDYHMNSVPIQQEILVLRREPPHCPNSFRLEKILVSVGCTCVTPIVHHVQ

Take `COC[C@H](c1cnn2cc([C@@H](NC(=O)c3nonc3OC)C3CCC(F)(F)CC3)nc2c1)N1CC(F)(F)C(F)(F)CNC1=O` [Example 124, N—((S)-(4,4-Difluorocyclohexyl)(7-((S)-2-methoxy-1-(5,5,6,6-tetrafluoro-2-oxo-1,3-diazepan-1-yl)ethyl)imidazo[1,2-b]pyridazin-2-yl)methyl)-4-methoxy-1,2,5-oxadiazole-3-carboxamide]: the IC50 (usually the concentration that gives 50% inhibition) in assay [1] is less than 50 nM; in assay [2] (Homo sapiens, Keratinocyte) it was 50 to 100 nM.
As for `COC[C@H](c1cnn2cc([C@@H](NC(=O)c3nonc3C3CC3(F)F)C3CCC(F)(F)CC3)nc2c1)N1CC(F)(F)CNC1=O` (single isomer, unassigned) [Example 129, N—((S)-(7-((S)-1-(5,5-Difluoro-2-oxotetrahydropyrimidin-1(2H)-yl)-2-methoxyethyl)imidazo[1,2-b]pyridazin-2-yl)(4,4-difluorocyclohexyl)methyl)-4-((S*)-2,2-difluorocyclopropyl)-1,2,5-oxadiazole-3-carboxamide], the IC50 in assay [1] and in assay [2] was less than 50 nM in each case.
As to `COC[C@H](c1cnn2cc([C@@H](NC(=O)c3nonc3CC(F)(F)F)C3CCC(F)(F)CC3)nc2c1)N1CC(F)(F)CNC1=O` [Example 130, N—((S)-(7-((S)-1-(5,5-Difluoro-2-oxotetrahydropyrimidin-1(2H)-yl)-2-methoxyethyl)imidazo[1,2-b]pyridazin-2-yl)(4,4-difluorocyclohexyl)methyl)-4-(2,2,2-trifluoroethyl)-1,2,5-oxadiazole-3-carboxamide], the IC50 was less than 50 nM in assay [1] and less than 50 nM in assay [2] (Homo sapiens, Keratinocyte).
For the compound `COC[C@H](c1cnn2cc([C@@H](NC(=O)c3nonc3C3CC3(F)F)C3CCC(F)(F)CC3)nc2c1)N1CC(F)(F)CNC1=O` (single isomer, unassigned) [Example 128, N—((S)-(7-((S)-1-(5,5-Difluoro-2-oxotetrahydropyrimidin-1(2H)-yl)-2-methoxyethyl)imidazo[1,2-b]pyridazin-2-yl)(4,4-difluorocyclohexyl)methyl)-4-((R*)-2,2-difluorocyclopropyl)-1,2,5-oxadiazole-3-carboxamide], the IC50 in assay [1] is less than 50 nM; in assay [2] (Homo sapiens, Keratinocyte) it was less than 50 nM.
Consider `[2H]C1([2H])NC(=O)N([C@H](COC)c2cnn3cc([C@H](CCC(C)(C)C(F)(F)F)NC(=O)c4nonc4C)nc3c2)C([2H])([2H])C1(F)F` [Example 74, N—((S)-1-(7-((S)-1-(5,5-Difluoro-2-oxotetrahydropyrimidin-1(2H)-yl-4,4,6,6-d4)-2-methoxyethyl)imidazo[1,2-b]pyridazin-2-yl)-5,5,5-trifluoro-4,4-dimethylpentyl)-4-methyl-1,2,5-oxadiazole-3-carboxamide], for which the half-maximal inhibitory concentration (IC50) was less than 50 nM in assay [1] and less than 50 nM in assay [2] (Homo sapiens, Keratinocyte).
For `COC[C@H](c1cnn2cc([C@H](CCC(C)(C)C(F)(F)F)NC(=O)c3nonc3C(F)F)nc2c1)N1CC(F)(F)CNC1=O` [Example 110, N—((S)-1-(7-((S)-1-(5,5-Difluoro-2-oxotetrahydropyrimidin-1(2H)-yl)-2-methoxyethyl)imidazo[1,2-b]pyridazin-2-yl)-5,5,5-trifluoro-4,4-dimethylpentyl)-4-(difluoromethyl)-1,2,5-oxadiazole-3-carboxamide], the IC50 in assay [1] is less than 50 nM; in assay [2] (Homo sapiens, Keratinocyte), less than 50 nM.
In the case of `COC[C@H](c1cnn2cc([C@@H](NC(=O)c3nonc3C)[C@H](C)OC(C)(C)C(F)(F)F)nc2c1)N1CC(F)(F)CNC1=O` (relative stereo) [Example 61, N-((1R*,2S*)-1-(7-((S)-1-(5,5-Difluoro-2-oxotetrahydropyrimidin-1(2H)-yl)-2-methoxyethyl)imidazo[1,2-b]pyridazin-2-yl)-2-((1,1,1-trifluoro-2-methylpropan-2-yl)oxy)propyl)-4-methyl-1,2,5-oxadiazole-3-carboxamide], the IC50 in assay [1] is greater than 100 nM; in assay [2] (Homo sapiens, Keratinocyte), greater than 100 nM.
Turning to `COC[C@H](c1cnn2cc(C(NC(=O)c3nonc3C)C3C[C@H]4CC[C@H]4C3)nc2c1)N1CC(F)(F)CNC1=O` (single isomer, unassigned) [Example 132, N-((1S*)-((1R,5S)-Bicyclo[3.2.0]heptan-3-yl)(7-((S)-1-(5,5-difluoro-2-oxotetrahydropyrimidin-1(2H)-yl)-2-methoxyethyl)imidazo[1,2-b]pyridazin-2-yl)methyl)-4-methyl-1,2,5-oxadiazole-3-carboxamide], the IC50 was less than 50 nM in assay [1] and less than 50 nM in assay [2] (Homo sapiens, Keratinocyte).
`CC(C)(CC[C@H](NC(=O)c1nonc1C1CC1)c1cn2ncc(CN3C[C@H]4[C@@H](CNC3=O)C4(F)F)cc2n1)C(F)(F)F` (relative stereo) [Example 119, 4-Cyclopropyl-N—((S)-1-(7-(((1R*,7S*)-8,8-difluoro-4-oxo-3,5-diazabicyclo[5.1.0]octan-3-yl)methyl)imidazo[1,2-b]pyridazin-2-yl)-5,5,5-trifluoro-4,4-dimethylpentyl)-1,2,5-oxadiazole-3-carboxamide]: the half-maximal inhibitory concentration (IC50) was less than 50 nM in assay [1] and less than 50 nM in assay [2] (Homo sapiens, Keratinocyte).
As for `COC[C@H](c1cnn2cc([C@@H](NC(=O)c3nonc3C(F)F)C3CCC(F)(F)CC3)nc2c1)N1CC(F)(F)CNC1=O` [Example 79, N—((S)-(7-((S)-1-(5,5-Difluoro-2-oxotetrahydropyrimidin-1(2H)-yl)-2-methoxyethyl)imidazo[1,2-b]pyridazin-2-yl)(4,4-difluorocyclohexyl)methyl)-4-(difluoromethyl)-1,2,5-oxadiazole-3-carboxamide], the IC50 in assay [1] was less than 50 nM; in assay [2] (Homo sapiens, Keratinocyte) it was less than 50 nM.
`[2H]C1([2H])NC(=O)N([C@H](COC)c2cnn3cc([C@H](CCC(C)(C)C(F)(F)F)NC(=O)c4ncnn4C(C)C)nc3c2)C([2H])([2H])C1(F)F` [Example 112, N—((S)-1-(7-((S)-1-(5,5-Difluoro-2-oxotetrahydropyrimidin-1(2H)-yl-4,4,6,6-d4)-2-methoxyethyl)imidazo[1,2-b]pyridazin-2-yl)-5,5,5-trifluoro-4,4-dimethylpentyl)-1-isopropyl-1H-1,2,4-triazole-5-carboxamide]: the IC50 in assay [1] is less than 50 nM; in assay [2] (Homo sapiens, Keratinocyte), 50 to 100 nM.
Taken in the same sequence, the figures for `[2H]C1([2H])NC(=O)N([C@H](COC2CC2)c2cnn3cc([C@H](CCC(C)(C)C(F)(F)F)NC(=O)c4nonc4C)nc3c2)C([2H])([2H])C1(F)F` [Example 76, N—((S)-1-(7-((S)-2-Cyclopropoxy-1-(5,5-difluoro-2-oxotetrahydropyrimidin-1(2H)-yl-4,4,6,6-d4)ethyl)imidazo[1,2-b]pyridazin-2-yl)-5,5,5-trifluoro-4,4-dimethylpentyl)-4-methyl-1,2,5-oxadiazole-3-carboxamide] were less than 50 nM and less than 50 nM.
As to `COC[C@H](c1cnn2cc(C(CCC(C)(C)C(F)(F)F)NC(=O)c3nonc3C)nc2c1)N1CC(F)(F)CNC1=O` (single isomer, unassigned) [Example 45, N—((S*)-1-(7-((S)-1-(5,5-Difluoro-2-oxotetrahydropyrimidin-1(2H)-yl)-2-methoxyethyl)imidazo [1,2-b]pyridazin-2-yl)-5,5,5-trifluoro-4,4-dimethylpentyl)-4-methyl-1,2,5-oxadiazole-3-carboxamide], the IC50 was less than 50 nM in assay [1] and less than 50 nM in assay [2] (Homo sapiens, Keratinocyte).
Turning to `[2H]C1([2H])NC(=O)N([C@H](COC2CC2)c2cnn3cc([C@H](CCC(C)(C)C(F)(F)F)NC(=O)c4nonc4OC)nc3c2)C([2H])([2H])C1(F)F` [Example 75, N—((S)-1-(7-((S)-2-Cyclopropoxy-1-(5,5-difluoro-2-oxotetrahydropyrimidin-1(2H)-yl-4,4,6,6-d4)ethyl)imidazo[1,2-b]pyridazin-2-yl)-5,5,5-trifluoro-4,4-dimethylpentyl)-4-methoxy-1,2,5-oxadiazole-3-carboxamide], the IC50 in assay [1] was less than 50 nM; in assay [2] (Homo sapiens, Keratinocyte) it was less than 50 nM.
